Experimental findings from PubChem BioAssay (NCI) are described below.

Assay in all cases: NCI anticancer screen, dose series, 48 h
Experiment [1] relates to SR leukemia.
Experiment [2] has as its system A549 NSCLC.
Experiment [3] deals with CCRF-CEM leukemia.
Experiment [4] concerns SNB-75 CNS.
The subject of experiment [5] is SF-295 CNS.
Experiment [6] concerns EKVX NSCLC.
The subject of experiment [7] is NCI-H522 lung.
Experiment [8] has as its system A498 renal.
The subject of experiment [9] is BT-549 breast.
Experiment [10] deals with RXF 393 renal.
In experiment [11] the test system is 786-0 renal.

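Compound exposure: 48 hours, 5 concentrations, 96-well plates. GI50 marks 50% less growth. TGI is the concentration that stops growth completely.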 Where a SMILES comes first, the peptide text is derived from it.

For the compound `CC(C)C1OC(=O)/C=C/C=C/C=C/C=C/C=C/CC(O)C(C)C(O)CC(O)CC(O)CC(O)CC(O)CC(O)CC(O)/C=C/C1C` (stereo not drawn), the TGI in [1], in experiment [2], in experiment [3], in experiment [4], in [5] and in [6] was more than 100 µM throughout. Moreover, the TGI in [7] and in [8] was more than 100 µM throughout. For the same compound, the GI50 in experiment [3] is 5.11 µM.
For the compound `C/C(N=Nc1nc2ccccc2[nH]1)=C1/C=CC=CN1O`, the TGI in experiment [1], in experiment [2], in experiment [9], in experiment [3], in experiment [5] and in experiment [10] was more than 100 µM throughout. Further, the TGI in experiment [6], in [7], in [8] and in experiment [11] was more than 100 µM in each case.
`COC(OC)C1OC(CO)C(n2cc(F)c(=O)[nH]c2=O)C1O` (stereo not drawn): the TGI in experiment [2], in experiment [9], in [3], in experiment [4], in experiment [5] and in experiment [10] was more than 100 µM each time. Further, the TGI in [6], in experiment [7] and in experiment [8] was more than 100 µM throughout.
Consider `C1=CC(=[N+]2N=C(c3ccccc3)CC2c2ccccc2)C=CC1=C1SC(c2ccccc2)(c2ccccc2)c2ccccc21` (stereo not drawn), for which the TGI in experiment [1], in experiment [2], in experiment [9], in experiment [3], in [5] and in [10] was more than 100 µM throughout. Further, the TGI in experiment [6], in experiment [8] and in [11] was more than 100 µM in each case.
As for `COc1cc2c(cc1OCCCCCCCCN1C(=O)c3cccc4cccc(c34)C1=O)N=C[C@@H]1CCCN1C2=O`, the TGI was 21.7 µM in [1]; more than 100 µM in experiment [2]; 35.1 µM in [9]; 7.28 µM in [3]; 10.3 µM in experiment [4]; 43 µM in experiment [5]. For the same compound, the TGI was 29.7 µM in experiment [10], 35.7 µM in [6], 39.9 µM in experiment [7] and more than 100 µM in experiment [11].
Consider `COC(CN(C=O)[C@@H](c1ccc(Cl)cc1)c1cc2ccccc2o1)OC`, for which the TGI in experiment [2] amounted to 45.4 µM; in experiment [3], 44 µM; in experiment [4] it was 42.7 µM; in [5], 31 µM; in [10] it was 28.4 µM; in experiment [6], 34.4 µM. The TGI in experiment [7] is 29.2 µM; in experiment [8], 33.1 µM; in experiment [11], 51.1 µM.
On to `O=S(=O)(O)c1cc(N=[N+]([O-])c2cc(S(=O)(=O)O)c3ccccc3c2)cc2ccccc12`, for which the TGI is more than 100 µM in experiment [1]; more than 100 µM in experiment [2]; 39 µM in [9]; more than 100 µM in experiment [3]; 30 µM in [4]; more than 100 µM in experiment [5]. The TGI is more than 100 µM in experiment [10]; more than 100 µM in experiment [6]; 65.9 µM in experiment [7]; more than 100 µM in [8]; more than 100 µM in experiment [11].
With `O=C(O)C(O)C(O)C(O)C(=O)CO` (stereo not drawn), the TGI in experiment [1], in experiment [2], in [9], in experiment [3], in experiment [4] and in experiment [5] was more than 100 µM in each case. Besides, the TGI in experiment [10], in experiment [6], in experiment [7], in [8] and in [11] was more than 100 µM each time.
As for `CCCSc1ccc2[nH]c(N3C(=O)/C(=C/c4cc(OC)c(OC)c(OC)c4)N=C3c3ccccc3)cc2c1`, the TGI in experiment [1] was more than 34.9 µM; in experiment [2], more than 25.3 µM; in experiment [9] it was 37.4 µM; in [3], more than 32.9 µM; in experiment [4], 33.5 µM; in [5], 37.1 µM. The TGI was 19.9 µM in experiment [10]; more than 37.5 µM in experiment [6]; 26.8 µM in [7]; more than 25.8 µM in [8]; more than 25 µM in [11].
Regarding `O=C1/C(=C\c2ccc(F)cc2)CCOc2c1ccc1ccccc21`, the TGI in [2] was more than 70.3 µM; in experiment [9], 77.3 µM; in [3] it was 35.9 µM; in experiment [4], more than 66.1 µM; in [5], 70.3 µM; in experiment [10] it was 49.7 µM. In addition, the TGI in [6] was more than 100 µM; in experiment [7], more than 100 µM; in experiment [8] it was more than 62.1 µM; in [11], 62.5 µM.
Consider `COc1cc2c(cc1C)NC(=O)/C2=C/c1c(Cl)n(-c2ccccc2)c2ccccc12`, for which the TGI in experiment [1] is 32.9 µM; in experiment [2], more than 100 µM; in experiment [9], 66.5 µM; in [3], 30.8 µM; in experiment [4], more than 100 µM; in [5], 49 µM. Further, the TGI in [10] was 38.5 µM; in experiment [6], more than 100 µM; in experiment [7], 32.2 µM; in experiment [8], more than 100 µM; in experiment [11] it was 43.3 µM.
For the compound `CCCN1C(=O)CSC1=Nc1ccc2cc3ccc(N=C4SCC(=O)N4CCC)cc3nc2c1`, the GI50 was 98.2 µM in experiment [1]; more than 100 µM in experiment [2]; 46.5 µM in experiment [9]; more than 100 µM in [3]; 22.3 µM in experiment [4]; 30 µM in [5]. The GI50 is 75.8 µM in experiment [10], more than 100 µM in [6] and more than 100 µM in experiment [8]. In addition, the TGI in [1], in [2], in experiment [9], in [3], in [4] and in experiment [5] was more than 100 µM in each case. For the same compound, the TGI in experiment [10] was more than 100 µM; in [6] it was more than 100 µM; in [8], more than 100 µM; in experiment [11] it was 0.0603 µM.
With `CCOC(=O)C(=O)NCCCN1CCOCC1`, the TGI in experiment [2], in [3], in experiment [4], in experiment [5], in [10] and in experiment [6] was more than 100 µM each time. Moreover, the TGI in [7] and in [8] was more than 100 µM each time.
As to `O=C1CC2(CCC(O)(c3cccs3)C(C(=O)c3cccs3)C2)C(=O)c2ccccc2N1` (stereo not drawn), the TGI in experiment [1], in [2], in experiment [9], in experiment [3], in experiment [4] and in experiment [5] was more than 100 µM in each case. Besides, the TGI in experiment [10], in experiment [6] and in experiment [8] was more than 100 µM in each case.
For `Nc1ccc(-c2nc3cc(F)ccc3s2)cc1CO`, the TGI in experiment [2] was more than 100 µM; in experiment [9], 51.2 µM; in experiment [3], more than 100 µM; in experiment [4] it was 36.8 µM; in experiment [5] it was 34.8 µM; in experiment [10] it was 34.9 µM. For the same compound, the TGI in experiment [6] was more than 100 µM; in [7], more than 100 µM; in experiment [8], 0.0141 µM; in experiment [11], more than 100 µM.
As to `CC(=O)c1ccc2c(c1)N(CCCN1CCN(CCO)CC1)c1ccccc1C2`, the TGI in experiment [2] amounted to 33.3 µM; in experiment [9], 28.1 µM; in experiment [3], 28.2 µM; in experiment [4] it was 30.5 µM; in experiment [5], 31.8 µM; in [10] it was 32.6 µM. The TGI in experiment [6] came out at 33.6 µM; in [7] it was 31.2 µM; in experiment [8], 30.1 µM; in experiment [11], 31.5 µM.
In the case of `COC(=S)OC1CC(n2cnc3c(N)ncnc32)OC1CO[Si](C)(C)C(C)(C)C` (stereo not drawn), the TGI in [1] is more than 100 µM; in experiment [9] it was 64.1 µM; in [3] it was 75.9 µM; in experiment [5], 34.6 µM; in [10], 25.9 µM; in experiment [8], 56.9 µM.
Consider `O=c1[nH]c(Nc2ccc(Cl)cc2)nc2nc[nH]c12`, for which the TGI in [1], in [2], in experiment [9], in [4], in [5] and in experiment [6] was more than 100 µM each time. Further, the TGI in experiment [7], in [8] and in experiment [11] was more than 100 µM each time.
As for `O=c1c2ccccc2[nH]c(=S)n1-c1ccc(N=Nc2cccc3cc(O)ccc23)cc1`, the TGI in experiment [1], in experiment [2], in experiment [9], in experiment [3], in [4] and in experiment [5] was more than 100 µM each time. The TGI in [10], in experiment [6], in experiment [7] and in experiment [11] was more than 100 µM in each case.
For `Cc1cnoc1NS(=O)(=O)c1ccc(Nc2nnc(/C=C/c3c(O)ccc4ccccc34)c(=O)n2N)cc1`, the TGI is 55.6 µM in experiment [1]; more than 100 µM in experiment [2]; 53.9 µM in experiment [9]; more than 100 µM in experiment [3]; 77 µM in experiment [4]; more than 100 µM in experiment [5]. The TGI in experiment [10] came out at 80.2 µM; in experiment [6], 71.9 µM; in [11] it was 77.1 µM.
For the compound `NC(=S)N1N=C(c2ccccc2O)CC1c1ccccc1` (stereo not drawn), the TGI in [2] was 84.6 µM; in experiment [9], 75 µM; in experiment [3], more than 100 µM; in [4] it was 52.9 µM; in [5], 29.2 µM; in [10], 41.6 µM. The TGI came out at 70.6 µM in [6], 18.8 µM in experiment [7], 30.1 µM in experiment [8] and 60 µM in [11].
As to `COc1ccc(C(=O)N(C(=O)N2CCN(c3ccccc3)CC2)S(=O)(=O)c2ccccc2)cc1`, the TGI in [1] was 42.8 µM; in experiment [2] it was 88.8 µM; in [9], more than 100 µM; in experiment [3], more than 100 µM; in experiment [4], 63.8 µM; in [5], more than 100 µM. The TGI in [6] is 50.4 µM; in experiment [7], 33.3 µM; in [8], more than 100 µM; in [11] it was 90.5 µM.
Consider `COc1ccc(C2c3cc4c(cc3OC(O)(CO)C2C(=O)O)OCO4)cc1` (stereo not drawn) (tested in a mixture with another compound), for which the TGI in experiment [1] is 56.2 µM; in [2] it was more than 100 µM; in experiment [3], 55.5 µM; in [4], 78.3 µM; in experiment [5], 57.3 µM; in experiment [10], 34.7 µM. In addition, the TGI in [6] was 88 µM; in [8], more than 100 µM.
As for `CCC(C)C(NC(=O)C1CCCN1C(=O)C(CC(C)C)NC(=O)C(CC(C)C)NC(=O)C(N)CC(C)C)C(=O)NC(C(=O)NCC(=O)NC(CC(N)=O)C(=O)NC(CC(C)C)C(=O)NC(CC(C)C)C(=O)NC(CC(C)C)C(N)=O)C(C)C` (stereo not drawn) (H-LLLPIVGNLLL-NH2; configuration not given here), the TGI in experiment [1], in experiment [2], in experiment [9], in experiment [3], in [5] and in [6] was more than 50 µM in each case. For the same compound, the TGI in experiment [7], in [8] and in [11] was more than 50 µM throughout.
Turning to `CC(=O)Oc1ccc(CO)cc1OC(C)=O`, the TGI in experiment [1] is more than 100 µM; in [2], more than 100 µM; in experiment [3] it was 76.1 µM; in experiment [4] it was more than 100 µM; in experiment [5], more than 100 µM; in [10], more than 100 µM. The TGI in experiment [6], in experiment [7], in experiment [8] and in experiment [11] was more than 100 µM each time.
For the compound `Cc1ccccc1NC(=O)CC(=O)N1N=C(N2c3ccccc3Sc3ccccc32)CC1c1ccccc1` (stereo not drawn), the TGI in experiment [1], in experiment [2], in experiment [4], in experiment [5], in experiment [6] and in [8] was more than 100 µM each time.
